Results: patent US20250268844A1, “ANTICANCER AGENTS BASED ON CYCLOPENTENONES” (UNIVERSITY OF CRETE, priority 2022, published 2025)
Blank lines part the entries; values can stand above or below the compound they belong to.

What was measured:
[1] = system: A2780 ovarian cancer cells; assay: PrestoBlue cell viability assay; format: cell-based, human; conditions: 72 hrs treatment, n=3 experiments
Description: The effects of Enone-1 and Enone-2 on cancer cells were confirmed using a second methodology, namely the PrestoBlue assay (PrestoBlue™ Cell Viability Reagent, Thermo Fisher, Catalog number: A13261), a cell permeable resazurin-based solution that functions as a cell viability indicator. A2780 ovarian cancer cells were plated as described above for the MTT assays and Enone drugs were added at increasing concentrations as indicated in FIG. 2. Cell viability was determined 72 hrs later following the addition of PrestoBlue, according to the manufacturer's instructions (Thermo Fisher).

[2] = system: p53; assay: siRNA knockdown of Chek2 or Rpl11 and drug-induced p53 activation in A2780 cells; format: cell-based, human; conditions: A2780 transiently transfected with siRNAs
Description: (§1) FIG. 9. […] A2780 cells were cultured for 6 hrs in the presence of drug concentrations as indicated. (B) Effects of siRNA targeting RPL11 (siRPL11), Chek2 (siChek2) or the unrelated luciferase (Luci) genes on RPL11 and Chek2 mRNA levels quantified by RT-PCR. (C) Effects of siRpl11 on Enone-2 and oxaliplatin (OXA)-induced p53 activation. Expression levels relative to GAPDH are indicated; untreated controls (CNT) were given the arbitrary value of 1. […] Expression levels relative to GAPDH are indicated; untreated controls (CNT) were given the arbitrary value of 1.
To further validate this observation, A2780 cells were transiently transfected with siRNAs targeting Chek2 which is required for DDR-induced p53, or Rpl11 which is required for RS-mediated p53 activation. The efficacy and specificity of the knockdowns were confirmed by RT-qPCR (FIG. 9B).

[3] = system: MDA-MB-231 breast carcinoma cells; assay: MTT conversion assay, MDA-MB-231; format: cell-based, human; conditions: 48 hrs treatment
Description: (§2) In particular, Enone-1 and Enone-2 were tested for cytotoxic activity in 17 cell lines representing a broad spectrum of human tumors. They include human colorectal carcinoma (Caco2, RKO, HCT15, HT29), liver (HepG2), lung (A549), ovarian carcinoma (A2780, 2780CP, AGE60, SKOV3), anaplastic large cell lymphoma (Mac1 and Mac2a), breast carcinoma (MDA-MB-231), cervical (HeLa), bladder cancer (VM-CUB-1), melanoma (BRO), and multiple myeloma (MR20).
(§3) Each assay was performed in triplicate and repeated in 2-3 independent experiments. Specifically, to measure cell survival, 20 μl of 10 mg/ml MTT (3-([…])-2,5-diphenyl tetrazolium bromide; Sigma) was added to each well and the plates were incubated at 37° C. in 5% CO2 for 3 hours. The supernatant was removed and the formed crystals were dissolved in 200 μl dimethyl sulphoxide. The plates were then analysed at 450 nm on a plate reader. Growth inhibition (reduction in survival) was calculated by expressing the differences in optical densities between treatment wells and control wells as a percentage of the control.

[4] = system: A549 lung cells; assay: MTT conversion assay, A549; format: cell-based, human; conditions: 48 hrs treatment
Description: as §2, §3

[5] = system: HT29 colorectal carcinoma cells; assay: MTT conversion assay, HT29; format: cell-based, human; conditions: 48 hrs treatment
Description: as §2, §3

[6] = system: RKO colorectal carcinoma cells; assay: MTT conversion assay, RKO; format: cell-based, human; conditions: colon, 48 hrs treatment
Description: as §2, §3

[7] = system: MB49 mouse bladder carcinoma cells; assay: MTT assay, MB49; format: cell-based; conditions: 48 hrs
Description: FIG. 5: Effects of enone compounds on mouse tumor growth.
as §3
First, the impact of Enone-1 and Enone-2 on the survival of MB49 cells was verified by MTT assays performed as described in FIG. 1.

[8] = system: MR20 multiple myeloma cells; assay: MTT conversion assay, MR20; format: cell-based, human; conditions: 48 hrs treatment
Description: as §2, §3

[9] = system: HeLa cervical carcinoma cells; assay: MTT conversion assay, HeLa; format: cell-based, human; conditions: 48 hrs treatment
Description: as §2, §3

[10] = system: 2780CP, a cis-platin-resistant derivative of A2780; assay: MTT conversion assay, 2780CP; format: cell-based, human; conditions: for IC50: 2780CP, ovarian, cis-platin-resistant, 48 hrs treatment, MTT; for sensitivity of 2780CP cells compared with cis-platin-sensitive A2780 cells: MTT conversion assays
Description: as §2, §3
Resistance to platinum-based chemotherapy is a major problem in oncology that impacts therapeutic options and limits patient survival. This is relevant to several types of malignancy, including ovarian cancer where platinum resistance frequently occurs. As Enone-1 and 2 show efficacy in reducing survival of A2780 ovarian carcinoma cells, the drugs were also tested in 2780CP, a cis-platin-resistant derivative of A2780 [13].

[11] = system: γH2Ax; assay: γH2Ax immunoblot (DNA damage response marker) in A2780 cells; format: cell-based, human; conditions: 6 hrs, increasing concentrations, relative to untreated controls
Description: as §1

[12] = system: A2780 ovarian carcinoma cells; assay: MTT conversion assay, A2780; format: cell-based, human; conditions: 48 hrs treatment
Description: as §2, §3

[13] = system: HCT15 colorectal carcinoma cells; assay: MTT conversion assay, HCT15; format: cell-based, human; conditions: 48 hrs treatment
Description: as §2, §3

[14] = system: HepG2 liver cells; assay: MTT conversion assay, HepG2; format: cell-based, human; conditions: 48 hrs treatment
Description: as §2, §3

[15] = system: AGE60 ovarian carcinoma cells; assay: MTT conversion assay, AGE60; format: cell-based, human; conditions: 48 hrs treatment
Description: as §2, §3

[16] = system: SKOV3 ovarian carcinoma cells; assay: MTT conversion assay, SKOV3; format: cell-based, human
Description: as §2, §3

[17] = system: BRO melanoma cells; assay: MTT conversion assay, BRO; format: cell-based, human; conditions: 48 hrs treatment
Description: as §2, §3

[18] = system: p53; assay: p53 immunoblot in A2780 cells; format: cell-based, human; conditions: 2.5 μM or increasing concentrations, 6 hrs or time course
Description: (§4) FIG. 8: Enones induce the p53 pathway. […] Cell lysates were analyzed for p53 and GAPDH (loading control). (B) A2780 cells were cultured in the presence or absence of 2.5 μM for the indicated time points before being analyzed for p53 and GAPDH levels. (C) Treatment of A2780 cells with 2.5 μM Enone-2 results in the up-regulation of p53-regulated genes (*p<0.05; **p<0.01; ***p<0.001, n=4). (D) Induction of p53 accumulation in AGE60 ovarian carcinoma cells following 6 or 14 hr exposure to 2.5 μM Enone-2. (E) Enone-1 induces the p53 pathway in A2780 cells which were cultured in the presence of 2.5 μM of the drug and analyzed as in (B). (F) Treatment of A2780 cells with 2.5 μM Enone-2 results in the up-regulation of p53-regulated genes (*p<0.05; **p<0.01; ***p<0.001, n=3).
(§5) The effects of Enone-2 on p53 and p53-dependent transcription of cell cycle and cell death-associated genes was confirmed by immunoblotting for p53 and by reverse transcription qPCR (RT-qPCR) for mdm2, p21, bax and bbc3/puma, established p53 target genes.

[19] = system: VM-CUB-1 bladder cancer cells; assay: MTT conversion assay, VM-CUB-1; format: cell-based, human; conditions: 48 hrs treatment
Description: as §2, §3

[20] = system: Caco-2 colorectal carcinoma cells; assay: MTT conversion assay, Caco-2; format: cell-based; conditions: Homo sapiens, Caco-2, colon, 48 hrs treatment
Description: as §2, §3

[21] = system: mdm2, p21, bax and bbc3/puma; assay: RT-qPCR of p53 target genes in A2780 cells; format: cell-based, human; conditions: 2.5 μM
Description: as §4, §5

SMILES: O=C1[O][Pt]2([NH][C@@H]3CCCC[C@H]3[NH]2)[O]C1=O [oxaliplatin, reference compound]
IC50 [1]: 0.27 µM
effect of Chek2 or Rpl11 siRNA knockdown on drug-induced p53 activation [2]: depletion of Rpl11 reduced oxaliplatin-induced p53 accumulation

SMILES: N.N.[Cl][Pt][Cl] [cis-platin, reference compound]
IC50 [3]: 32 µM
IC50 [4]: 7.5 µM
IC50 ([5]; HT29, colon): 13.5 µM
IC50 [1]: 1.4 µM
IC50 [6]: 19 µM
IC50 [7]: 3.8 µM
effect of Chek2 or Rpl11 siRNA knockdown on drug-induced p53 activation [2]: Chek2 knockdown ameliorated cis-platin-induced p53 activation
IC50 [8]: ~5.8 µM
IC50 ([8]; listed as Cis-platin): 5.8 µM
IC50 [9]: ~31 µM
IC50 ([9]; listed as Cis-platin): 31 µM
IC50 [10]: 10 µM
sensitivity of 2780CP cells compared with cis-platin-sensitive A2780 cells [10]: less sensitive
γH2Ax induction (marker of DDR) [11]: induced γH2Ax
IC50 [12]: 1.4 µM
IC50 ([13]; HCT15, colon): 14 µM
IC50 [14]: 9 µM
IC50 [15]: 5 µM
IC50 ([16]; 48 hrs treatment): 4 µM
IC50 [17]: 15.2 µM
p53 accumulation (immunoblot) [18]: less effective
IC50 [19]: 7.9 µM

IC50 [20]: 1.8 µM
IC50 ([4]; Homo sapiens): 1.7 µM
IC50 ([5]; Homo sapiens, HT-29, HT29, colon): 1.2 µM
IC50 ([1]; Homo sapiens): 0.2 µM
IC50 ([6]; Homo sapiens): 1.3 µM
IC50 [7]: 1.4 µM
IC50 ([8]; Homo sapiens, Multiple myeloma cell): 0.05 µM
IC50 ([10]; Homo sapiens, A2780): 0.75 µM
IC50 ([12]; Homo sapiens): 0.6 µM
IC50 ([13]; Homo sapiens, HCT-15, HCT15, colon): 1.2 µM
IC50 ([14]; Homo sapiens): 3.8 µM
IC50 ([15]; Homo sapiens, Ovarian carcinoma cell): 1 µM
IC50 ([16]; Homo sapiens, SK-OV-3, 48 hrs treatment): 0.8 µM
IC50 ([17]; Homo sapiens): 3.9 µM
IC50 ([19]; Homo sapiens): 1.2 µM
SMILES: C[C@@]1(O)C=CC(=O)C1c1ccc2ccccc2c1 (stereo in doubt) [Enone-1, 4-hydroxy-4-methyl-5-(naphthalen-2-yl)cyclopent-2-en-1-one]
mdm2, p21, bax and bbc3/puma mRNA (p53-dependent gene expression) [21]: induce p53 and p53-dependent gene expression
sensitivity of 2780CP cells compared with cis-platin-sensitive A2780 cells [10]: nearly as sensitive
sensitivity of 2780CP cells compared with cis-platin-sensitive A2780 cells ([10]; listed as Enone1): remain sensitive
p53 accumulation (immunoblot) [18]: induce p53
